How the values were obtained:
primary human PBMCs = assay: Cytokine production from primary human PBMCs (multiplex); type: cell-based; settings: plate-coated compound, 24 h, 5 individual donors
Excerpt: PBMCs were obtained via leukapheresis from normal donors (AllCells, Berkeley, CA) or fresh blood was obtained from health human donors through a University of Montana Institutional Review Board (IRB) approved protocol. PBMCs obtained via leukapheresis were washed in 1x PBS and cryopreserved in freezing media (50% RPMI, 40% FCS, 10% DMSO) for future use. PBMCs from on-site human donors were separated from whole blood via density gradient separation using Histopaque 1077 (Sigma). Cells were washed in RPMI media containing 10% heat inactivated FBS, penicillin/streptomycin/glutamine (complete media) and resuspended at the desired cell concentration in complete media. Cells were treated with the indicated compound concentrations by addition to plates coated with a serial dilution of the stock compound in diluent (50% isopropanol/50% isooctane, fully evaporated).
Supernatants were harvested from treated cells following 18–24 h of incubation. Supernatants were analyzed using a DuoSet TNFα ELISA (R&D Systems, Minneapolis, MN) or Luminex multiplex panel for analytes TNFα, IL-1β, IL-6, IFNγ, IL-12p70, and IL-23 (R&D Systems) per the manufacturer's instructions. Multiplex analysis was performed using a Luminex 200 instrument (Luminex Corporation) and analyzed with StarStation2.3 software. ELISAs were read on a plate reader at 450 nm and cytokine concentration was calculated by fitting the standard curve OD values to a 4-parameter logistical model using curve fitting software (XLfit, IDBS, Alameda, CA).
To determine if the abridged cytokine repertoire induced by the compounds from the cell lines was a cell-specific or compound-specific phenomenon, the response of a heterogeneous primary human PBMCs to the αTDE compound library was also evaluated. Primary human PBMCs were incubated with the αTDE compound and supernatants were evaluated by multiplex cytokine ELISA for TNFα, IL-1β, IL-23, IL-6 (Th17 associated) and IFNγ and IL-12p70 (Th1 associated). As with THP-1 cells, robust dose-responsive induction of TNFα and IL-1β was detected, but unlike the THP-1 cells dose-responsive stimulation of IL-6 and IL-23 production was also noted in response to a subset of the αTDE compounds (Figure 5). No production of the Th1-associated IFNγ or IL-12p70 were detected (data not shown). […] Consistent with the previous THP-1 cell responses, the longer chain length compounds, B32-B46, induced minimal cytokine responses only at the highest dose evaluated (Figure 5, right graphs).
Figure 5 Cytokine production from primary human mononuclear cells in response to stimulation with synthetic trehalose diester compounds. […] Cryopreserved PBMCs were thawed and applied to the compound-coated plates and incubated at 37°C; supernatant was harvested 24 h later and analyzed for TNFα, IL-1β, IL-23, IL-6. […]

mouse Mincle = biological target: T1, mouse Mincle (Mus musculus, UniProt Q9R0Q8); assay: HEK cells expressing mouse Mincle with NF-κB-driven SEAP reporter; type: cell-based; settings: average calculated EC50, n = 3; plate-coated compound, 24 h; read-out: mMincle EC50 (converted)
T1 construct: host or cells: HEK (HEK-Blue) cells with NF-κB-driven SEAP reporter
T1 sequence (Q9R0Q8 1-214): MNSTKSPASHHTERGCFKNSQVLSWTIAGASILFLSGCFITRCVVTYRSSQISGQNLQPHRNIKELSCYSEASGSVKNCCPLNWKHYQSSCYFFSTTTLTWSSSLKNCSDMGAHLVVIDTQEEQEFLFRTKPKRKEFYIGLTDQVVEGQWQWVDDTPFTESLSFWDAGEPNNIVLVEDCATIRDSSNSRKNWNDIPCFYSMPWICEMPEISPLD
Description: Human and mouse Mincle expressing HEK cells were obtained from Invivogen (San Diego, CA). Cells were cultured according to the manufactures instructions in DMEM with 10% FBS, 50 U/ml penicillin, […] streptomycin, […] Normocin, 2 mM L-glutamine, 30 μg/ml blasticidin, 1 μg/ml puromycin and 1x HEK-Blue™ CLR Selection. For assay, indicated compounds were serially diluted in diluent (50%IPA/50% isooctane), 20 μl of a 10x final concentration were applied to the bottom of a 96-well tissue culture plate and the solvent was evaporated for >1 h in a biosafety hood. HEK cells were applied to the plates at a density of 3 × 10^5 cells/well and incubated for 18–24 h at 37°C. Cell supernatants were harvested and analyzed via the manufacturer's instructions using Hek-Blue^TM Detection. SEAP activity was assessed by reading the optical density (OD) at 620–655 nm with a microplate reader; data are expressed as the fold change in OD over vehicle treated cells.
To investigate the capacity of these molecules to bind to and activate the Mincle receptor, we used human embryonic kidney (HEK) cells expressing the human or mouse Mincle receptor along with an NF-κB-driven secreted embryonic alkaline phosphatase (SEAP) reporter. Many of the αTDE compounds were able to induce production of SEAP in a dose dependent manner (Figure 2). HEK null cells (HEK cells containing the NF-kB reporter without Mincle receptor) were used as a negative controls to confirm the receptor specificity of the compounds in HEK cells expressing human or mouse Mincle reporter (Supplemental Figure 4). […] The relative activity of TDM and TDB in the human and mouse HEK cells is consistent with the results reported by others ([20]). […] This synthetic version is a shorter chain version of the lipid-derived one reported to be “human-specific” ([28]).
Figure 2 Activation of human or mouse Mincle in response to synthetic αTDE compounds. The indicated compounds were dissolved in 50% isopropanol/isooctane, serially diluted in vehicle and then dried to the bottom of a tissue culture plate. HEK cells transfected with human (A–C) or mouse (D–F) Mincle and an NF-κB-driven SEAP reporter were incubated with the compounds for 24 h followed by assessment of the supernatants for SEAP levels. Data are represented as fold change in OD650 over vehicle treated cells. Graphs are mean values from three independent experiments ± SEM. Table in (G) represents the average calculated EC50 and average max SEAP value (± SD, n = 3) for each compound in each cell line. […]

[1] = system: Hek Blue human or mouse Mincle-expressing cells; type: cell-based; settings: top concentrations, 24 h; compared with vehicle only-treated cells
BALB/c mice [2] = assay: Splenocyte restimulation with M72 and intracellular cytokine staining of CD4/CD8 T cells after vaccination; type: in vivo, mouse
Description: (§1) Animal studies were carried out in an OLAW and AAALAC accredited vivarium in accordance with University of Montana's IACUC guidelines for the care and use of laboratory animals. Groups of 10–14 BALB/c mice were vaccinated intramuscularly with 0.125 μg M72 antigen and indicated concentrations of various CLR adjuvant candidates (liposomal formulations) in 50 μl total volume per injection. After 14 days, blood and serum samples were collected and a secondary vaccination was administered. At day 19 (5 days post-secondary vaccination), 3–6 mice per group were euthanized and spleens were harvested the assessment of cell-mediated immunity. At day 28 (14 days post booster vaccination) the remaining 7 mice in each group were euthanized and blood was collected for the measurement of M72 specific humoral immunity.
Spleens were harvested from vaccinated mice 5 days after secondary injections and splenocytes were harvested by disruption of the spleens through a 100 μm filter. Red blood cells were lysed by incubation with red blood cell lysis buffer (Sigma) for 5 min followed by washing in 1x PBS. Cells were plated in a 96 well plate at 5 × 10^6 cells/well in 200 μL complete RPMI1640 media. Cells were incubated with 1 μg/mL M72 antigen for […] at 37°C. After 7 h, GolgiPlug (Brefeldin A, BD Biosciences) was added to each well and incubated at 37°C for a further 12 h. Following incubation, cells were stained with the cell surface antibodies against CD3e PerCP-Cy5.5 (Tonbo Biosciences, 145-2C11), CD4a APC-Cy7 (Tonbo Biosciences, RM4-5) and CD8a PE-Cy7 (Tonbo Biosciences, 53–6.7) and viability stain (Ghost 510, Tonbo Biosciences). Cells were treated with cytofix/cytoperm (BD) and stained with anti-IFNγ PE-CF594 (BD, XMG1.2), anti-IL2 FITC (Biolegend, JES6-5H4), anti-IL-5 PE (BD, TRFK5), anti-IL17A BV421 (Biolegend, TC11-18H10.1), and anti-TNFα APC (Invitrogen, MP6-XT22). Data was collected using an LSRII flow cytometer (BD) and analyzed using FlowJo 10.0 software (TreeStar). Splenocytes were gated on live, single cells, then CD3+ to identify all T cells, then gated as CD4+CD8- to identify CD4 T cells or CD4-CD8+ to identify CD8 T cells. Gates for intracellular cytokine positive CD4 or CD8 T cells are set based on re-stimulation of naïve splenocytes. Gating strategies for the detection of antigen specific CD4+ and CD8+ T cells are outlined in Supplemental Figure 3.
Figure 7 Induction of IL-17 producing CD4+ and CD8+ T cells from an αTDE adjuvanted M72 vaccine. BALB/c mice, 10 per group, were immunized two times i.m. with 0.125 μg antigen plus 2, 10, or 50 nmol of the indicated adjuvant. Spleens were harvested from a subset of 3 mice per group at 5 days post-secondary vaccination. Splenocytes were restimulated with 1 μg/mL whole antigen and transport inhibitors followed by surface staining for CD3, CD4, and CD8 and then intracellular cytokine staining. Data represent percentage of live, CD3^+/CD4^+, left, or CD3^+/CD8^+, right, cells that are also positive for IL-17A upon stimulation.
(§2) Figure 8 B16 liposomes biases a Th17/Th2 adaptive immune response. BALB/c mice, 14 per group, were immunized twice, 14 days apart, i.m with 0.1, 1, or 10 μg of M72 antigen plus either blank DDA:DSPC liposome or B16 loaded (10 nmol final dose) liposome. (A,B) M72-specific serum antibody titers at 14 days post-secondary vaccination. (C–F) Spleens were harvested from mice at 5 days post-secondary vaccination and restimulated with 1 μg/mL whole antigen and transport inhibitors followed by surface staining for CD3, CD4, and CD8 and then intracellular cytokine staining. (C) Percent of live, CD3^+/CD4^+/IL5+ cells, (D) Percent of live, CD3^+/CD8^+/IFNγ+ cells, (E) Percent of live, CD3^+/CD4^+/IL17+ cells, and (F) Percent of live, CD3^+/CD8^+/IL17+ cells. ^*p < 0.05, ^**p < 0.01, ^****p < 0.001.
Supplemental Figure 10. Production of IFNɣ, IL-2, IL-5 or TNFα by CD4 or CD8 T cells in response to various CLR compounds. […]

BALB/c mice [3] = assay: Anti-M72 serum antibody ELISA after i.m. vaccination with M72 antigen plus liposomal adjuvant; type: in vivo, mouse; settings: 0.125 μg M72 antigen plus 2, 10, or 50 nmol adjuvant in DDA:DSPC liposomes, i.m. two times, 14 days post-secondary vaccination
Description: as §1
Sera was collected from mice 14 days post-primary and 14 days post-secondary injection and diluted according to the expected antibody response (between 1:10 and 1:5000). Plates were coated with 100 μl of the full-length M72 protein at 1 μg/mL. Following washing (PBS plus tween 20) and blocking (SuperBlock, Scytek Laboratories), plates were incubated with diluted serum for 1 h followed by anti-mouse IgG, IgG1, or IgG2a-HRP secondary antibody (Bethyl Laboratories) and TMB substrate (BD). Plates were read at 450 nm. Antibody titers were determined by calculating titer of each sample at OD 0.3.
Figure 6 Serum antibody levels from mice in response to vaccination with recombinant M72 antigen and various αTDE compounds. BALB/c mice, 10 per group, were vaccinated two times i.m. with 0.125 μg antigen plus 2, 10, or 50 nmol of the indicated adjuvant. Serum was analyzed from 7 mice at 14 days post-secondary vaccination for presence of anti-M72 IgG1 and IgG2a antibodies via ELISA.
as §2

CC(C)C(=O)OC[C@H]1O[C@H](O[C@H]2O[C@H](COC(=O)C(C)C)[C@@H](O)[C@H](O)[C@H]2O)[C@H](O)[C@@H](O)[C@@H]1O [Compound B4]
Th17-associated cytokine production (TNFα, IL-1β, IL-6, IL-23) from human PBMCs (primary human PBMCs): mixed responses

CCCC(CCC)C(=O)OC[C@H]1O[C@H](O[C@H]2O[C@H](COC(=O)C(CCC)CCC)[C@@H](O)[C@H](O)[C@H]2O)[C@H](O)[C@@H](O)[C@@H]1O [Compound B8]
Th17-associated cytokine production (TNFα, IL-1β, IL-6, IL-23) from human PBMCs (primary human PBMCs): readily detected
EC50 (mouse Mincle): 2850 nM
Cell viability of Mincle HEK cells [1]: marked decreases in viability

CCCCC(CCCC)C(=O)OC[C@H]1O[C@H](O[C@H]2O[C@H](COC(=O)C(CCCC)CCCC)[C@@H](O)[C@H](O)[C@H]2O)[C@H](O)[C@@H](O)[C@@H]1O [Compound B10]
Th17-associated cytokine production (TNFα, IL-1β, IL-6, IL-23) from human PBMCs (primary human PBMCs): readily detected
EC50 (mouse Mincle): 3450 nM
Cell viability of Mincle HEK cells [1]: marked decreases in viability

CCCCCCCCCCCCCCCCCCCCC(CCCCCCCCCCCCCCCCCCCC)C(=O)OC[C@H]1O[C@H](O[C@H]2O[C@H](COC(=O)C(CCCCCCCCCCCCCCCCCCCC)CCCCCCCCCCCCCCCCCCCC)[C@@H](O)[C@H](O)[C@H]2O)[C@H](O)[C@@H](O)[C@@H]1O [Compound B42]
IL-5 production in CD8+ T cells (BALB/c mice [2]; 2 nmol adjuvant, 0.125 μg antigen, over liposome control): increased
IL-5 production in CD8+ T cells (BALB/c mice [2]; 50 nmol adjuvant, 0.125 μg antigen, over naïve and liposome control): increased
IL-17+ CD4+ and CD8+ T cells (Th17 response) after M72 re-stimulation (BALB/c mice [2]; 0.125 μg antigen plus 2, 10, or 50 nmol liposomal adjuvant, i.m. two times, spleens 5 days post-secondary): able to drive superior Th17 responses
TNFα production by T cells (BALB/c mice [2]; highest dose evaluated, 0.125 μg antigen, compared to controls): increased compared to controls
Anti-M72 serum IgG1 and IgG2a antibody (BALB/c mice [3]): neither compound significantly enhanced

CCC(CC)C(=O)OC[C@H]1O[C@H](O[C@H]2O[C@H](COC(=O)C(CC)CC)[C@@H](O)[C@H](O)[C@H]2O)[C@H](O)[C@@H](O)[C@@H]1O [Compound B6]
Th17-associated cytokine production (TNFα, IL-1β, IL-6, IL-23) from human PBMCs (primary human PBMCs): mixed responses
EC50 (mouse Mincle): 739 nM

— PMC6403188, “Species-Specific Structural Requirements of Alpha-Branched Trehalose Diester Mincle Agonists” (Frontiers in Immunology, 2019)
